We go through eleven compounds from patent publication US20210251232A1, “USE OF FUNGICIDAL ACTIVE COMPOUND I DERIVATIVE AND MIXTURES THEREOF IN SEED APPLICATION AND TREATMENT METHODS” (BASF SE, priority 2018, published 2021).

Read-outs that look alike come from different tables or passages of the source.

Format in all cases: cell-based
Common to all, as to settings: alone, 7 days after inoculation

The subject of one assay is Pyricularia oryzae.
In a further assay the test system is Phytophthora infestans.
In the next assay the test system is Botrytis cinerea. Description: Microtiterplate test, activity against the grey mold Botrytis cinerea.
A further assay relates to Leptosphaeria nodorum. Description: Microtiter test, activity against wheat leaf spots caused by Leptosphaeria nodorum.
In assay [1] the test system is Qol resistant iso-late of Pyrenophora teres. Description: Microtiter test, activity against Pyrenophora teres.

For `CN/C(=N\[N+](=O)[O-])NCc1cnc(Cl)s1` [Clothianidin], the Observed efficacy with Pyricularia oryzae (63 ppm) came to 0.
As for `N#Cc1ccc(Oc2ccc(C(F)(F)C(O)(Cn3ncnc3S)c3ccc(F)cc3F)nc2)cc1` (stereo not shown) [Compound I, 4-[[6-[2-(2,4-difluorophenyl)-1,1-difluoro-2-hydroxy-3-(5-sulfanyl-1,2,4-triazol-1-yl)propyl]-3-pyridyl]oxy]benzonitrile], the Observed efficacy in the assay with Phytophthora infestans (4 ppm, 405 nm, 0 = growth as untreated control, 100 = no growth) is recorded as 24; in the assay with Botrytis cinerea (4 ppm, 405 nm), 24; with Leptosphaeria nodorum (0.25 ppm), 0; in the assay with Leptosphaeria nodorum (1 ppm) it was 20; in the assay with Leptosphaeria nodorum (4 ppm, 405 nm) it was 37; in the assay on Pyricularia oryzae (1 ppm, 405 nm), 0. The Observed efficacy in assay [1] (4 ppm, 405 nm) turned out to be 0.
As to `N#Cc1c[nH]cc1-c1cccc2c1OC(F)(F)O2` [Fludioxonil], the figures for the Observed efficacy in the assay on Pyricularia oryzae (0.016 ppm), in the assay with Pyricularia oryzae (0.063 ppm) and in the assay with Pyricularia oryzae (0.25 ppm) were 9, 17 and 26, respectively.
Regarding `O=[N+]([O-])NC1=NCCN1Cc1ccc(Cl)nc1` [Imidacloprid], the Observed efficacy with Pyricularia oryzae (63 ppm) is 0.
For `CC(C)C1CCC(Cc2ccc(Cl)cc2)C1(O)Cn1cncn1` (stereo not shown) [Ipconazol], in the assay on Pyricularia oryzae (16 ppm), the Observed efficacy came out at 0.
As to `CC(O)(Cn1cncn1)c1ccc(Oc2ccc(Cl)cc2)cc1C(F)(F)F` (stereo not shown) [Mefentrifluconazol], the Observed efficacy in the assay with Phytophthora infestans (0.016 ppm) amounted to 0; in the assay on Botrytis cinerea (0.016 ppm), 0; in the assay with Leptosphaeria nodorum (0.016 ppm) it was 39; in assay [1] (0.25 ppm), 31.
Consider `Cc1cc(C(F)(F)F)nn1CC(=O)N1CCC(c2nc(C3=NOC(c4c(F)cccc4F)C3)cs2)CC1` (stereo not shown) [Oxathiapirolin], for which the Observed efficacy in the assay on Pyricularia oryzae (16 ppm) is 0.
In the assay on Leptosphaeria nodorum (0.016 ppm), `COC(=O)N(OC)c1ccccc1COc1ccn(-c2ccc(Cl)cc2)n1` [Pyraclostrobin] gave an Observed efficacy of 42.
As for `CC(c1ccc(C(F)(F)F)nc1)S(C)(=O)=NC#N` (stereo not shown) [Sulfoxaflor], in the assay on Pyricularia oryzae (63 ppm), the Observed efficacy was determined as 0.
Turning to `COC(=O)NC(=S)Nc1ccccc1NC(=S)NC(=O)OC` [Thiophanate methyl], the Observed efficacy with Pyricularia oryzae (4 ppm) is 0.
On to Spinetoram, for which the Observed efficacy with Pyricularia oryzae (63 ppm) is 0.
